Measurements from patent publication US7067500B2, “Betaines as adjuvants to susceptibility testing and antimicrobial therapy” (priority 1997, dated 2006).
“And” between values parts separate entries of the source, which are not always exact repeats. Equal entries are not always repeated. Structures can show the parent of a compound that is named as a salt.

Tested on: M. tuberculosis isolates ATCC 27294 and 571/573-BAL
Assay: Mycobacterial susceptibility testing (proportion method criteria) with CB-18 and P-cax
Type: cell-based, Mycobacterium tuberculosis

CCCCCCCCCCCCCCCCCC[N+](C)(C)CCCC(=O)[O-] [CB-18, N-(3-carboxypropyl)-N,N-dimethyl-1-octadecanaminium, inner salt]
CB-18 concentration at which the isolate would have been reported as susceptible (571/573-BAL, 10×-dilution (111,000 ± 17,900 cfu), in the presence of P-cax): 60 µg/mL and 30 µg/mL
CB-18 concentration at which the isolate would have been reported as susceptible (571/573-BAL, 100×-dilution (11,100 ± 1,790 cfu), in the presence of P-cax): 15 µg/mL
CB-18 concentration at which the isolate would have been reported as susceptible (ATCC 27294, 10×-dilution (62,800 ± 5,700 cfu), in the presence of P-cax): 60 µg/mL
CB-18 concentration at which the isolate would have been deemed susceptible (ATCC 27294, 100×-dilution (6,280 ± 570 cfu), in the presence of P-cax): 30 µg/mL
growth of isolates (both isolates, high input (>1×10^5 cfu), 30 μg/ml CB-18): grew unimpeded during the first week
